# Experimental data as given in the supplement of paper PMC10307832.
# Legend:
# Experiment in all cases: relative viability (nuclei count vs DMSO), 5 days (fraction); higher = more cells survive
# CAL-12T = system: CAL-12T
# Procedure, shortened: (§1)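 Relative viability equals treated-well nuclei counts divided by vehicle-well nuclei counts. Counts came from 4× images of lung cancer cell lines grown in 1536-well plates for 5 days after pin-tool dosing on the day after seeding. Dosing used one drug alone or a fixed anchor-drug dose plus five library-drug doses (not always all listed) in √10 steps, and values are medians of duplicate plates.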
# EKVX = system: EKVX
# Procedure, shortened: as §1
# H3255 = system: H3255
# Procedure, shortened: as §1
# HCC-15 = system: HCC-15
# Procedure, shortened: as §1
# HCC-827 = system: HCC-827
# Procedure, shortened: as §1
# LCLC-97TM1 = system: LCLC-97TM1
# Procedure, shortened: as §1
# LK-2 = system: LK-2
# Procedure, shortened: as §1
# NCI-H1355 = system: NCI-H1355
# Procedure, shortened: as §1
# NCI-H1650 = system: NCI-H1650
# Procedure, shortened: as §1
# NCI-H1734 = system: NCI-H1734
# Procedure, shortened: as §1
# NCI-H1755 = system: NCI-H1755
# Procedure, shortened: as §1
# NCI-H1975 = system: NCI-H1975
# Procedure, shortened: as §1
# NCI-H2228 = system: NCI-H2228
# Procedure, shortened: as §1
# NCI-H2342 = system: NCI-H2342
# Procedure, shortened: as §1
# NCI-H2405 = system: NCI-H2405
# Procedure, shortened: as §1
# NCI-H322M = system: NCI-H322M
# Procedure, shortened: as §1
# NCI-H520 = system: NCI-H520
# Procedure, shortened: as §1
# NCI-H661 = system: NCI-H661
# Procedure, shortened: as §1
# PC-14 = system: PC-14
# Procedure, shortened: as §1
# PC-3 [JPC-3] = system: PC-3 [JPC-3]
# Procedure, shortened: as §1
# RERF-LC-KJ = system: RERF-LC-KJ
# Procedure, shortened: as §1
compound,measurement,setting,value
Nc1ccn([C@@H]2O[C@H](CO)[C@@H](O)[C@@H]2O)c(=O)n1 [Cytarabine] + CC(=O)Nc1cccc(-n2c(=O)n(C3CC3)c(=O)c3c(Nc4ccc(I)cc4F)n(C)c(=O)c(C)c32)c1 [Trametinib] (partner 0.02 µM),relative viability,CAL-12T; first compound 0.005 µM,0.411
same,relative viability,CAL-12T; first compound 0.01581 µM,0.318
same,relative viability,CAL-12T; first compound 0.05 µM,0.326
same,relative viability,CAL-12T; first compound 0.1581 µM,0.22
same,relative viability,CAL-12T; first compound 0.5 µM,0.22
same,relative viability,EKVX; first compound 0.005 µM,0.584
same,relative viability,EKVX; first compound 0.01581 µM,0.285
same,relative viability,EKVX; first compound 0.05 µM,0.295
same,relative viability,EKVX; first compound 0.5 µM,0.167
same,relative viability,H3255; first compound 0.005 µM,0.637
same,relative viability,H3255; first compound 0.01581 µM,0.652
same,relative viability,H3255; first compound 0.05 µM,0.639
same,relative viability,H3255; first compound 0.1581 µM,0.559
same,relative viability,H3255; first compound 0.5 µM,0.533
same,relative viability,HCC-15; first compound 0.005 µM,0.396
same,relative viability,HCC-15; first compound 0.01581 µM,0.281
same,relative viability,HCC-15; first compound 0.05 µM,0.381
same,relative viability,HCC-15; first compound 0.1581 µM,0.362
same,relative viability,HCC-15; first compound 0.5 µM,0.357
same,relative viability,HCC-827; first compound 0.005 µM,0.362
same,relative viability,HCC-827; first compound 0.01581 µM,0.313
same,relative viability,HCC-827; first compound 0.05 µM,0.239
same,relative viability,HCC-827; first compound 0.1581 µM,0.188
same,relative viability,HCC-827; first compound 0.5 µM,0.154
same,relative viability,LCLC-97TM1; first compound 0.005 µM,0.191
same,relative viability,LCLC-97TM1; first compound 0.01581 µM,0.159
same,relative viability,LCLC-97TM1; first compound 0.05 µM,0.173
same,relative viability,LCLC-97TM1; first compound 0.1581 µM,0.136
same,relative viability,LCLC-97TM1; first compound 0.5 µM,0.135
same,relative viability,LK-2; first compound 0.005 µM,1.01
same,relative viability,LK-2; first compound 0.01581 µM,0.701
same,relative viability,LK-2; first compound 0.05 µM,0.479
same,relative viability,LK-2; first compound 0.1581 µM,0.226
same,relative viability,LK-2; first compound 0.5 µM,0.268
same,relative viability,NCI-H1355; first compound 0.005 µM,0.367
same,relative viability,NCI-H1355; first compound 0.01581 µM,0.38
same,relative viability,NCI-H1355; first compound 0.05 µM,0.398
same,relative viability,NCI-H1355; first compound 0.1581 µM,0.303
same,relative viability,NCI-H1355; first compound 0.5 µM,0.282
same,relative viability,NCI-H1650; first compound 0.005 µM,0.446
same,relative viability,NCI-H1650; first compound 0.01581 µM,0.419
same,relative viability,NCI-H1650; first compound 0.05 µM,0.452
same,relative viability,NCI-H1650; first compound 0.1581 µM,0.24
same,relative viability,NCI-H1650; first compound 0.5 µM,0.158
same,relative viability,NCI-H1734; first compound 0.005 µM,0.361
same,relative viability,NCI-H1734; first compound 0.01581 µM,0.264
same,relative viability,NCI-H1734; first compound 0.05 µM,0.203
same,relative viability,NCI-H1734; first compound 0.1581 µM,0.132
same,relative viability,NCI-H1734; first compound 0.5 µM,0.119
same,relative viability,NCI-H1755; first compound 0.005 µM,0.827
same,relative viability,NCI-H1755; first compound 0.01581 µM,0.76
same,relative viability,NCI-H1755; first compound 0.05 µM,0.681
same,relative viability,NCI-H1755; first compound 0.1581 µM,0.512
same,relative viability,NCI-H1755; first compound 0.5 µM,0.407
same,relative viability,NCI-H1975; first compound 0.005 µM,0.34
same,relative viability,NCI-H1975; first compound 0.01581 µM,0.267
same,relative viability,NCI-H1975; first compound 0.05 µM,0.631
same,relative viability,NCI-H1975; first compound 0.1581 µM,0.25
same,relative viability,NCI-H1975; first compound 0.5 µM,0.24
same,relative viability,NCI-H2228; first compound 0.005 µM,0.288
same,relative viability,NCI-H2228; first compound 0.01581 µM,0.171
same,relative viability,NCI-H2228; first compound 0.05 µM,0.158
same,relative viability,NCI-H2228; first compound 0.1581 µM,0.127
same,relative viability,NCI-H2228; first compound 0.5 µM,0.116
same,relative viability,NCI-H2342; first compound 0.005 µM,0.779
same,relative viability,NCI-H2342; first compound 0.01581 µM,0.825
same,relative viability,NCI-H2342; first compound 0.05 µM,0.803
same,relative viability,NCI-H2342; first compound 0.1581 µM,0.579
same,relative viability,NCI-H2342; first compound 0.5 µM,0.646
same,relative viability,NCI-H2405; first compound 0.005 µM,0.648
same,relative viability,NCI-H2405; first compound 0.01581 µM,0.53
same,relative viability,NCI-H2405; first compound 0.05 µM,0.464
same,relative viability,NCI-H2405; first compound 0.1581 µM,0.401
same,relative viability,NCI-H2405; first compound 0.5 µM,0.317
same,relative viability,NCI-H322M; first compound 0.005 µM,0.484
same,relative viability,NCI-H322M; first compound 0.01581 µM,0.456
same,relative viability,NCI-H322M; first compound 0.05 µM,0.441
same,relative viability,NCI-H322M; first compound 0.1581 µM,0.429
same,relative viability,NCI-H322M; first compound 0.5 µM,0.402
same,relative viability,NCI-H520; first compound 0.005 µM,0.696
same,relative viability,NCI-H520; first compound 0.01581 µM,0.684
same,relative viability,NCI-H520; first compound 0.05 µM,0.579
same,relative viability,NCI-H520; first compound 0.1581 µM,0.477
same,relative viability,NCI-H520; first compound 0.5 µM,0.484
same,relative viability,NCI-H661; first compound 0.005 µM,0.574
same,relative viability,NCI-H661; first compound 0.01581 µM,0.571
same,relative viability,NCI-H661; first compound 0.05 µM,0.582
same,relative viability,NCI-H661; first compound 0.1581 µM,0.435
same,relative viability,NCI-H661; first compound 0.5 µM,0.385
same,relative viability,PC-14; first compound 0.005 µM,0.712
same,relative viability,PC-14; first compound 0.01581 µM,0.669
same,relative viability,PC-14; first compound 0.05 µM,0.515
same,relative viability,PC-14; first compound 0.1581 µM,0.0885
same,relative viability,PC-14; first compound 0.5 µM,0.079
same,relative viability,PC-3 [JPC-3]; first compound 0.005 µM,0.705
same,relative viability,PC-3 [JPC-3]; first compound 0.01581 µM,0.73
same,relative viability,PC-3 [JPC-3]; first compound 0.05 µM,0.589
same,relative viability,PC-3 [JPC-3]; first compound 0.1581 µM,0.423
same,relative viability,PC-3 [JPC-3]; first compound 0.5 µM,0.498
same,relative viability,RERF-LC-KJ; first compound 0.005 µM,0.797
same,relative viability,RERF-LC-KJ; first compound 0.01581 µM,0.862
same,relative viability,RERF-LC-KJ; first compound 0.05 µM,0.716
same,relative viability,RERF-LC-KJ; first compound 0.1581 µM,0.498
same,relative viability,RERF-LC-KJ; first compound 0.5 µM,0.402
